Columns and labels:
Assay type in all cases: in vivo
[1] = tested on: two soybean varieties; assay: Example 1: average phytotoxic injury to the two soybean varieties; details: without Safening Composition A
Protocol: (§1) Glyphosate, tested as ROUNDUP® Ultra Herbicide (termed in Examples 1-3 as “Herbicidal Compound”), and COMMAND® 3 ME Herbicide comprised of at least one plant-safening, inorganic, water-soluble salt (calcium chloride), termed in Examples 1 and 2 as “Safening Composition A”, were tested as water solutions on two soybean varieties (Asgrow 2704 and Asgrow […]). The aforementioned solutions were sprayed in admixture as a tank mix onto flats of 12-day-old soybean plants arranged in a randomized, block design. There were four replicates for each rate of application. The soybean plants were evaluated at 21 days after treatment for percent phytotoxic injury by comparison to tests conducted on untreated plants and plants treated with Herbicidal Compound only. The rate of application clomazone for the Safening Composition A, and the rate of application of glyphosate for the Herbicidal Compound are expressed below in kg/ha.
For example, at the 0.2, 0.4, and 0.8 kg/ha rate of application of Herbicidal Compound, the average injury to the two soybean varieties is about 18%, 46%, and 70%, respectively.

[2] = tested on: soybean Variety A3234; assay: Example 1: phytotoxic injury to soybean, tank mix sprayed on 12-day-old plants; details: clomazone 0 kg/ha, 21 days after treatment
Protocol: (§2) The aforementioned solutions were sprayed in admixture as a tank mix onto flats of 12-day-old soybean plants arranged in a randomized, block design. There were four replicates for each rate of application. The soybean plants were evaluated at 21 days after treatment for percent phytotoxic injury by comparison to tests conducted on untreated plants and plants treated with Herbicidal Compound only. The rate of application clomazone for the Safening Composition A, and the rate of application of glyphosate for the Herbicidal Compound are expressed below in kg/ha.

[3] = tested on: soybean variety Asgrow 2704; assay: as above; details: clomazone 0 kg/ha, 21 days after treatment
Protocol: as §2

[4] = tested on: Tomato; assay: Example 2: phytotoxic injury to crops, tank mix spray; details: clomazone 0 kg/ha, 14 days after treatment
Protocol: as §1
(§3) As set forth in Example 2, the Herbicidal Compound and Safening Composition A were tested in the same manner as described in Example 1. The aforementioned Herbicidal Compound and Safening Composition A were sprayed as a tank mix onto 10-14 day old crop and weed species. The tests were evaluated at 14 days after treatment for percent injury by comparison to tests conducted on untreated plants and weeds, and plants and weeds treated with Herbicidal Compound only.

[5] = tested on: Sorghum; assay: as above; details: clomazone 0 kg/ha, 14 days after treatment
Protocol: as §1, §3

[6] = tested on: Pinto Bean; assay: as above; details: glyphosate 0.4 kg/ha, clomazone 0 kg/ha; 14 days after treatment
Protocol: as §1, §3

[7] = tested on: Corn; assay: as above; details: glyphosate 0.8 kg/ha, clomazone 0 kg/ha; 14 days after treatment
Protocol: as §1, §3

[8] = tested on: Cucumber; assay: as above; details: glyphosate 0.4 kg/ha, clomazone 0 kg/ha; 14 days after treatment
Protocol: as §1, §3

[9] = tested on: Rice; assay: as above; details: glyphosate 0.4 kg/ha, clomazone 0 kg/ha; 14 days after treatment
Protocol: as §1, §3

[10] = tested on: Rape; assay: as above; details: glyphosate 0.8 kg/ha, clomazone 0 kg/ha; 14 days after treatment
Protocol: as §1, §3

Structure (SMILES): O=C(O)CNCP(=O)(O)O [Herbicidal Compound, Glyphosate]
- average injury to the two soybean varieties ([1]; glyphosate 0.2 kg/ha): about 18%
- average injury to the two soybean varieties ([1]; glyphosate 0.4 kg/ha): ~46%
- average injury to the two soybean varieties ([1]; glyphosate 0.8 kg/ha): ~70%
- Percent Phytotoxic Injury To Soybean Variety A3234 ([2]; glyphosate 0.2 kg/ha): 22%
- Percent Phytotoxic Injury To Soybean Variety A3234 ([2]; glyphosate 0.4 kg/ha): 54%
- Percent Phytotoxic Injury To Soybean Variety A3234 ([2]; glyphosate 0.8 kg/ha): 81%
- Percent Phytotoxic Injury To Soybean Variety A2704 ([3]; glyphosate 0.2 kg/ha): 14%
- Percent Phytotoxic Injury To Soybean Variety A2704 ([3]; glyphosate 0.4 kg/ha): 38%
- Percent Phytotoxic Injury To Soybean Variety A2704 ([3]; glyphosate 0.8 kg/ha): 60%
- Percent Phytotoxic Injury Tomato ([4]; glyphosate 0.2 kg/ha): 95%
- Percent Phytotoxic Injury Tomato ([4]; glyphosate 0.4 kg/ha): 100%
- Percent Phytotoxic Injury Sorghum ([5]; glyphosate 0.4 kg/ha): 76%
- Percent Phytotoxic Injury Sorghum ([5]; glyphosate 0.8 kg/ha): 100%
- Percent Phytotoxic Injury Pinto Bean [6]: 63%
- Percent Phytotoxic Injury Corn [7]: 90%
- Percent Phytotoxic Injury Cucumber [8]: 77%
- Percent Phytotoxic Injury Rice [9]: 65%
- Percent Phytotoxic Injury Rape [10]: 84%

— patent US20010051591A1, “Safening crops from the phytotoxic effects of herbicidally active N-phosphonomethyl-glycines” (priority 2000, published 2001)
